Bounds are passed on as bounds.

The source of these data is patent publication US5464607A, “5,5'-/(1,3-propanediyl) bis-/imino(2-oxo-2,1-ethanediyl)acetylimino/bis(2,4,6-triiodo-1,3-benzen edicarboxylamides), and contrast media containing them” (Dibra S.p.A., priority 1991, dated 1995).

Series [1] in a line: Osmolality (steampressure osmometer Wescor mod 5500). The class given is physicochemical. An excerpt:
^a) Calculated with a steampressure osmometer Wescor(R) mod 5500,
calibrated with NaCl aqueous solutions.

The nature of series [2]: Viscosity (ROTOVISCO RV100CV100-LV100, sensor ZB15). The series is classed as physicochemical. The source says: ^b) Calculated with ROTOVISCO^(R) RV100CV100-LV100, sensor ZB15.
The conditions of series [3]: water.
A short description of another series: physchem. Conditions: water.

As to `CC(=O)N(CC(=O)NCC(O)CNC(=O)CN(C(C)=O)c1c(I)c(C(=O)NCC(O)CO)c(I)c(C(=O)NCC(O)CO)c1I)c1c(I)c(C(=O)NCC(O)CO)c(I)c(C(=O)NCC(O)CO)c1I` (centres unmarked) [5,5'-[(2-hydroxy-1,3-propanediyl)bis [imino(2-oxo-2,1-ethanediyl)acetylimino]]bis[N,N'-bis(2,3-dihydroxypropyl)-2,4,6-triiodo-1,3-benzenedicarboxyamide]], the figures for the Osmolality in series [1] (200 mgI/ml), in series [1] (300 mgI/ml) and in series [1] (400 mgI/ml) were 0,17 osmol/kg H2 O, 0,25 osmol/kg H2 O and 0,72 osmol/kg H2 O, respectively. Further, the “Viscosity at 20° C.” value is reported as 5,7 mPa·s in series [2] (200 mgI/ml), 24 mPa·s in series [2] (300 mgI/ml) and 112 mPa·s in series [2] (400 mgI/ml). Also, the “Viscosity at 37° C.” value in series [2] (200 mgI/ml) was 3,4 mPa·s; in series [2] (300 mgI/ml) it was 12 mPa·s; in series [2] (400 mgI/ml), 41 mPa·s. The “Solubility in H2 O at 30° C.” value in series [3] is given as above 100 g in 100 ml. The molecule also displayed a solubility in the series “physchem” above 1000 mg/mL.

As a reminder, the solubility is the dissolved amount per volume that the medium holds. High values mean a readily soluble substance, low ones a poorly soluble substance.
